SMILES strings stand for the structures. Bounds are passed on as bounds.

The subject of one assay is 1118 (donor line of iPSC-derived cardiomyocytes). Kind of assay: POD (EC05) for increase in Ca2+ transient decay-to-rise ratio (QT prolongation) vs vehicle; higher = less potent (higher point of departure). Particulars: exposure time: 90 min. The gist of the method: (§1)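 Ca2+ flux in human iPSC-derived cardiomyocytes from 16 donors was recorded on a FLIPR Tetra for 100 s before and after a 90 min exposure at 37 °C to 0.1, 1, 10 and 100 µM (final, 0.5% DMSO). Donor-specific points of departure came from hierarchical Bayesian Hill fits to vehicle-normalised beat frequency, decay-to-rise ratio or peak frequency. A 5% change served as threshold, except for peak frequency, where it was a 95% loss.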
On to `O=C(O)C(F)(F)C(F)(F)OC(F)(F)F` [Perfluoro-3-methoxypropanoic_acid], for which the POD vs vehicle was greater than 100 µM.
With `O=C(O)C(F)(F)C(F)(F)C(F)(F)OC(F)(C(F)(F)F)C(F)(F)F` [Perfluoro-4-isopropoxybutanoic_acid], the POD vs vehicle was greater than 100 µM.
As to `O=S(=O)(O)C(F)(F)C(F)(F)C(F)(F)C(F)(F)F` [Perfluorobutanesulfonic_acid], the POD vs vehicle was greater than 100 µM.
Same read-out and setting: with `O=C(O)C(F)(F)C(F)(F)C(F)(F)F` [Perfluorobutanoic_acid] the figure was greater than 100 µM.
With `O=C(O)C(F)(F)C(F)(F)C(F)(F)C(F)(F)C(F)(F)C(F)(F)C(F)(F)C(F)(F)C(F)(F)F` [Perfluorodecanoic_acid], the POD vs vehicle was greater than 100 µM.
On the same count and under the same terms, with `O=C(O)C(F)(F)C(F)(F)C(F)(F)C(F)(F)C(F)(F)C(F)(F)F` [Perfluoroheptanoic_acid] the figure was greater than 100 µM.
For the compound `NS(=O)(=O)C(F)(F)C(F)(F)C(F)(F)C(F)(F)C(F)(F)C(F)(F)F` [Perfluorohexanesulfonamide], the POD vs vehicle is greater than 100 µM.
On to `O=S(=O)(O)C(F)(F)C(F)(F)C(F)(F)C(F)(F)C(F)(F)C(F)(F)F` [Perfluorohexanesulfonic_acid], for which the POD vs vehicle is greater than 100 µM.
As for `O=C(O)C(F)(F)C(F)(F)C(F)(F)C(F)(F)C(F)(F)F` [Perfluorohexanoic_acid], the POD vs vehicle was greater than 100 µM.
Take `O=C(O)C(F)(F)C(F)(F)C(F)(F)C(F)(F)C(F)(F)C(F)(F)C(F)(F)C(F)(F)F` [Perfluorononanoic_acid]: the POD vs vehicle was greater than 100 µM.
The same measure, in the same setting: the same measure for `O=S(=O)(O)C(F)(F)C(F)(F)C(F)(F)C(F)(F)C(F)(F)C(F)(F)C(F)(F)C(F)(F)F` [Perfluorooctanesulfonic_acid]: greater than 100 µM; for `O=C(O)C(F)(F)C(F)(F)C(F)(F)C(F)(F)C(F)(F)C(F)(F)C(F)(F)F` [Perfluorooctanoic_acid]: greater than 100 µM.
Regarding `O=C(O)C(F)(F)C(F)(F)C(F)(F)C(F)(F)F` [Perfluoropentanoic_acid], the POD vs vehicle was greater than 100 µM.
In the case of `O=C(O)C(F)(F)C(F)(F)F` [Perfluoropropanoic_acid], the POD vs vehicle is greater than 100 µM.
In the case of `O=C(O)C(F)(F)C(F)(F)C(F)(F)C(F)(F)C(F)(F)C(F)(F)C(F)(F)C(F)(F)C(F)(F)C(F)(F)F` [Perfluoroundecanoic_acid], the POD vs vehicle was greater than 100 µM.
Still for that read-out and setting: with `O=S(=O)([O-])C(F)(F)C(F)(F)C(F)(F)C(F)(F)F.[K+]` [Potassium_perfluorobutanesulfonate] the figure was greater than 100 µM.

The subject of another assay is 20084 (donor line of iPSC-derived cardiomyocytes). Described as above. Conditions: exposure time: 90 min. The essentials: as §1
Take `O=C(O)C(F)(F)C(F)(F)OC(F)(F)F` [Perfluoro-3-methoxypropanoic_acid]: the POD vs vehicle was greater than 100 µM.
On the same count and under the same terms, the same measure for `O=C(O)C(F)(F)C(F)(F)C(F)(F)OC(F)(C(F)(F)F)C(F)(F)F` [Perfluoro-4-isopropoxybutanoic_acid]: greater than 100 µM; for `O=S(=O)(O)C(F)(F)C(F)(F)C(F)(F)C(F)(F)F` [Perfluorobutanesulfonic_acid]: greater than 100 µM.
For the compound `O=C(O)C(F)(F)C(F)(F)C(F)(F)F` [Perfluorobutanoic_acid], the POD vs vehicle is greater than 100 µM.
Turning to `O=C(O)C(F)(F)C(F)(F)C(F)(F)C(F)(F)C(F)(F)C(F)(F)C(F)(F)C(F)(F)C(F)(F)F` [Perfluorodecanoic_acid], the POD vs vehicle was greater than 100 µM.
The same measure, in the same setting: with `O=C(O)C(F)(F)C(F)(F)C(F)(F)C(F)(F)C(F)(F)C(F)(F)F` [Perfluoroheptanoic_acid] the figure was greater than 100 µM.
With `NS(=O)(=O)C(F)(F)C(F)(F)C(F)(F)C(F)(F)C(F)(F)C(F)(F)F` [Perfluorohexanesulfonamide], the POD vs vehicle is greater than 100 µM.
The same measure, in the same setting: with `O=S(=O)(O)C(F)(F)C(F)(F)C(F)(F)C(F)(F)C(F)(F)C(F)(F)F` [Perfluorohexanesulfonic_acid] the figure was greater than 100 µM; with `O=C(O)C(F)(F)C(F)(F)C(F)(F)C(F)(F)C(F)(F)F` [Perfluorohexanoic_acid], greater than 100 µM; with `O=C(O)C(F)(F)C(F)(F)C(F)(F)C(F)(F)C(F)(F)C(F)(F)C(F)(F)C(F)(F)F` [Perfluorononanoic_acid], greater than 100 µM.
Turning to `O=S(=O)(O)C(F)(F)C(F)(F)C(F)(F)C(F)(F)C(F)(F)C(F)(F)C(F)(F)C(F)(F)F` [Perfluorooctanesulfonic_acid], the POD vs vehicle is greater than 100 µM.
On the same count and under the same terms, the same measure for `O=C(O)C(F)(F)C(F)(F)C(F)(F)C(F)(F)C(F)(F)C(F)(F)C(F)(F)F` [Perfluorooctanoic_acid]: greater than 100 µM; for `O=C(O)C(F)(F)C(F)(F)C(F)(F)C(F)(F)F` [Perfluoropentanoic_acid]: greater than 100 µM.
The same measure, in the same setting: the same measure for `O=C(O)C(F)(F)C(F)(F)F` [Perfluoropropanoic_acid]: greater than 100 µM; for `O=C(O)C(F)(F)C(F)(F)C(F)(F)C(F)(F)C(F)(F)C(F)(F)C(F)(F)C(F)(F)C(F)(F)C(F)(F)F` [Perfluoroundecanoic_acid]: greater than 100 µM; for `O=S(=O)([O-])C(F)(F)C(F)(F)C(F)(F)C(F)(F)F.[K+]` [Potassium_perfluorobutanesulfonate]: greater than 100 µM.

The test system of a further assay is 30171 (donor line of iPSC-derived cardiomyocytes). The assay is described as above. Particulars: exposure time: 90 min. The gist of the method:
as §1
Take `O=C(O)C(F)(F)C(F)(F)OC(F)(F)F` [Perfluoro-3-methoxypropanoic_acid]: the POD vs vehicle was greater than 100 µM.
In the case of `O=C(O)C(F)(F)C(F)(F)C(F)(F)OC(F)(C(F)(F)F)C(F)(F)F` [Perfluoro-4-isopropoxybutanoic_acid], the POD vs vehicle was greater than 100 µM.
Take `O=S(=O)(O)C(F)(F)C(F)(F)C(F)(F)C(F)(F)F` [Perfluorobutanesulfonic_acid]: the POD vs vehicle was greater than 100 µM.
Consider `O=C(O)C(F)(F)C(F)(F)C(F)(F)F` [Perfluorobutanoic_acid], for which the POD vs vehicle is greater than 100 µM.
On the same count and under the same terms, the same measure for `O=C(O)C(F)(F)C(F)(F)C(F)(F)C(F)(F)C(F)(F)C(F)(F)C(F)(F)C(F)(F)C(F)(F)F` [Perfluorodecanoic_acid]: greater than 100 µM.
With `O=C(O)C(F)(F)C(F)(F)C(F)(F)C(F)(F)C(F)(F)C(F)(F)F` [Perfluoroheptanoic_acid], the POD vs vehicle is greater than 100 µM.
The same measure, in the same setting: with `NS(=O)(=O)C(F)(F)C(F)(F)C(F)(F)C(F)(F)C(F)(F)C(F)(F)F` [Perfluorohexanesulfonamide] the figure was greater than 100 µM.
`O=S(=O)(O)C(F)(F)C(F)(F)C(F)(F)C(F)(F)C(F)(F)C(F)(F)F` [Perfluorohexanesulfonic_acid]: the POD vs vehicle amounted to 21.2 µM.

Values taken from the supplement of paper PMC11368000.
